Measurements published in patent US9345742B2, “Aminostatin derivatives for the treatment of arthrosis” (MERCK PATENT GMBH, priority 2011, dated 2016).
Numbered stars: 1 amine (or outer) side, 2 acyl side, 3 side chain; on linkers, the order of the positions; unused ones are H or OH. Square brackets hold non-standard residues; d marks the D form. Peptide text beside a SMILES is read from it. * marks the point of attachment. X1 = N[C@@H](CC(=O)[*:2])[C@H](Cc1ccccc1)N[*:1]; Tle = CC(C)(C)[C@H](N)C(=O)O; Isovaleryl = CC(C)CC(=O)*; Abu = CC[C@H](N)C(=O)O; Boc = CC(C)(C)OC(=O)*

Tests used:
recombinant human renin = recombinant human renin (Homo sapiens (Human), UniProt P00797); assay: In-vitro fluorescence assay for identification of renin-inhibitory activity; type: biochemical; conditions: recombinant human renin 10 nM, pH 7.2; read-out: Renin selectivity IC50
Chain of recombinant human renin (P00797 67-406): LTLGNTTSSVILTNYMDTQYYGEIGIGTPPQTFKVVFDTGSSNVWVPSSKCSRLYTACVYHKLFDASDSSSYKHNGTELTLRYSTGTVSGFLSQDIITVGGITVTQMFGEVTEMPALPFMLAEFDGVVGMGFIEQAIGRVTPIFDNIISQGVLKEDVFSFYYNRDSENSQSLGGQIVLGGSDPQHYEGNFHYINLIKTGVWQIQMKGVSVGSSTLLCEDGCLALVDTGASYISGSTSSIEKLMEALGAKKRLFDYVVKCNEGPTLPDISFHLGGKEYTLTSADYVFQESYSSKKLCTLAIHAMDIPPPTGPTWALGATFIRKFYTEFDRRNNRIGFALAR
Description: In order to identify modulators of renin activity, a continuous enzymatic test was carried out with a synthetic peptide which carries a fluorescent group Edans (=(5-(aminoethyl)aminonaphthalenesulfonate) which is quenched by energy transfer from a Dabcyl (4′-dimethylaminoazobenzene-4-carboxylate) group on the same molecule, in Greiner 384-well microtitre plates. Cleavage of the peptidic substrate by renin causes an increase in the fluorescence intensity. In order to determine the efficacy of substances, the time-dependent increase in the fluorescence intensity in the presence of the substance was compared with the time-dependent increase in fluorescence in the absence of substances. The reference substance used was renin inhibitor 2 (Z-Arg-Arg-Pro-Phe-His-Sta-Ile-His N-Boc-Lys methyl ester Z) (Sigma-Aldrich). The substrate used was renin FRET substrate I (DABCYL-g-Abu-[…]EDANS) (Anaspec, Fremont Calif.). The enzyme employed was recombinant human renin (Proteos, Kalamazoo, Mich.) in a final concentration of 10 nM. The test was carried out in 50 mM Mops buffer, 1.5% (v/v) of DMSO, 0.1% (w/v) of Igepal®, pH 7.2, 0.5% (w/v) of BSA. 2 μl of each substance solution with serially diluted substance concentration were added to in each case 4 μl of renin solution and incubated at room temperature for 15 min. The reaction was started by addition of 4 μl of substrate solution (final concentration 5 μM). After carrying out a starting-point fluorescence measurement (excitation wavelength 340 nm/emission wavelength 495 nm) using an Envision multilabel reader (Perkin Elmer), the reaction was incubated at 37° C. for 60 min. The amount of peptide fragment cleaved off during the reaction time was subsequently measured by determination of the increase in the fluorescence intensity at 495 nm (excitation wavelength 340 nm).

[1] = target: cathepsin D isolated from the human liver (Homo sapiens (Human), UniProt P07339); assay: In-vitro fluorescence assay for identification of cathepsin D inhibitors; type: biochemical; conditions: cathepsin D 1.4 nM, pH 5.5; read-out: CatD assay IC50-
Chain of cathepsin D isolated from the human liver (P07339 65-161): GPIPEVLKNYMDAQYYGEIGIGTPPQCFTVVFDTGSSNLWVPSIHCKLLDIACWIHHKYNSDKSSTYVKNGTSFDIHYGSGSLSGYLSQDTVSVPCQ
Chain of cathepsin D isolated from the human liver (P07339 169-412): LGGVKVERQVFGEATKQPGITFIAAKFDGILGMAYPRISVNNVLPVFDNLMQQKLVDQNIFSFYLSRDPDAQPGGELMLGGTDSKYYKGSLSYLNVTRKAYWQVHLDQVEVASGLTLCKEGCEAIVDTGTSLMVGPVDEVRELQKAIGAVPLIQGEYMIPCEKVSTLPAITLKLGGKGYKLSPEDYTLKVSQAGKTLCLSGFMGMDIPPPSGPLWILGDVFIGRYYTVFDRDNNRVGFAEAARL
Description: In order to identify modulators of cathepsin D activity, a continuous enzymatic test was carried out with a synthetic peptide which carries a fluorescent group (MCA=(7-methoxycoumarin-4-yl)acetyl) which is quenched by energy transfer from a Dpn (2,4 dinitrophenyl) group on the same molecule, in Greiner 384-well nb microtitre plates. Cleavage of the peptidic substrate by cathepsin D causes an increase in the fluorescence intensity. In order to determine the efficacy of substances, the time-dependent increase in the fluorescence intensity in the presence of the substance was compared with the time-dependent increase in fluorescence in the absence of substances. The reference substance used was pepstatin A (Sigma-Aldrich). The substrate used was […](Dnp)d-R—NH2 (Enzo Life Sciences, Lörrach). The enzyme employed was cathepsin D isolated from the human liver (Sigma-Aldrich) in a final concentration of 1.4 nM. The test was carried out in 100 mM sodium acetate buffer, 1.25% (v/v) of DMSO, 0.25% (w/v) of Chaps, pH 5.5. 2 μl of each substance solution with serially diluted substance concentration were added to in each case 4 μl of cathepsin D solution and incubated at room temperature for 10 min. The reaction was started by addition of 2 μl of substrate solution (final concentration 5 μM). After carrying out a starting-point fluorescence measurement (excitation wavelength 340 nm/emission wavelength 450 nm) using an Envision multilabel reader (Perkin Elmer), the reaction was incubated at room temperature for 60 min. The amount of peptide fragment cleaved off during the reaction time was subsequently measured by determination of the increase in the fluorescence intensity at 450 nm (excitation wavelength 340 nm).

bovine explants = assay: Cartilage explant assay (pH-induced cartilage degradation, GAG liberation); type: cell-based; conditions: Bos taurus, 72 h, pH 5.5, 3 days
Text: In order to investigate the effect of potential cathepsin D inhibitors on cartilage degradation, a pH-induced model based on bovine explants is used. The pH of the medium in which the explants are cultivated is matched here to the pathophysiological pH of an arthrotic knee. This pH is pH 5.5. In this ex vivo model, potential cathepsin D inhibitors are subsequently investigated for their action with respect to stopping of the cartilage degradation process. If the cartilage is destroyed, glycosaminoglycans (GAGs) are released into the cell culture supernatant. The amount of GAGs liberated can be determined quantitatively with the aid of DMMB (dimethylmethylene blue hydrochloride). If sulfated GAGs are detected using dimethylmethylene blue hydrochloride, the decrease in the absorption at 633 nm is utilised. […] In order to determine the concentration, a calibration line is also recorded using chondroitin sulfate.
The bovine explants are firstly prepared. The induction of the cartilage degradation is carried out in 96-multiwell plates. One explant is cultivated per well. In each case, 200 μl of DMEM (incubation medium pH 5.5) without FBS+30 μg/ml of ascorbic acid are added. Thus negative control, explants (n=4) are incubated at pH 7.4 (without FBS). This control is not included in the calculation of the data, but instead ensures that the pH change has the desired effect on the liberation of GAG. At this point, the substances to be tested are added. No preincubation of the explants is carried out. The explants are cultivated with the corresponding substances for 3 days in the incubator at 37° C. and 7.5% CO2.
In order to investigate the effect of cathepsin D inhibitors on the liberation of GAG (glycosaminoglycan), the substances are employed in the desired concentration and cultivated for 3 days. The compounds to be tested are tested in a first experiment in a concentration of 1 μM and 1% of DMSO. Substances which have an effect of >50% on the liberation of GAG (this corresponds to <50% of the control in the Assay Explorer) are tested in the next experiment at 100 nM and 1% of DMSO. Substances which have an effect of >50% on the liberation of GAG under these conditions (this corresponds to <50% of the control in the Assay Explorer) are tested in a concentration/effect relationship. The compounds here are investigated in the following concentrations: 30 μM, 10 μM, 3 μM, 1 μM, […], 0.1 μM, 0.03 μM, 0.01 μM.
The positive control used is pepstatin A with a concentration of 0.01 μM. The assay window is defined by the control (pH 5.5), defined as 0% effect, and the control pH 5.5+0.01 μM pepstatin A, defined as 100% effect. After incubation for 3 days, the cell culture supernatants are collected and stored at −20° C. or measured directly. The amount of liberated GAG is measured photometrically.
The effect (1 value) of the respective substance in % based on the positive control (pH 5.5+0.01 μM pepstatin A) and the negative control (pH 5.5) is reported for concentrations of 1 μM and 100 nM. The value represents the average of 4 replicants. In the determination of a concentration/effect relationship, an IC50 value is reported to the database (Assay Explorer).
The cell culture supernatants (200 μl) are either measured directly or stored at −20° C. In order to ensure an accurate determination of the concentration (μg/ml of GAG in the supernatant) of GAG, the measurement values must be located in the linear region of the standard curve. In order to ensure this, various dilutions are routinely introduced (1/5, 1/10, 1/20, 1/40). The dilutions are prepared with medium and introduced automatically (Hamilton) into a 384-well plate (15 μl). 60 μl of DMMB solution are likewise added automatically (or using a multichannel pipette). A rapid colour reaction occurs, which is subsequently measured at 633 nm using a plate reader (for example Envision).

Row | SMILES | IC50 (recombinant human renin) [nM] | IC50 [1] [nM] | IC50 (bovine explants) [nM]
1 | CC[C@H](C)[C@H](NC(=O)C[C@H](N)[C@H](Cc1ccccc1)NC(=O)[C@@H](NC(=O)Cc1cccc(OC(F)(F)F)c1)[C@@H](C)CC)C(=O)N[C@H](C(=O)O)C(C)C [Compound 37, (S)-2-[(2S,3S)-2-((3S,4S)-3-Amino-4-{(1S,4S)-3-methyl-2-[2-(3-trifluoromethoxy-phenyl)acetylamino]pentanoylamino}-5-phenylpentanoylamino)-3-methylpentanoylamino]-3-methylbutyric acid] | > 30000 | 3.2 | 8.2
2 | CC[C@H](NC(=O)[C@H](CC(C)C)NC(=O)OC(C)(C)C)C(=O)N[C@@H](Cc1ccccc1)[C@@H](N)CC(=O)N[C@H](C(=O)N[C@H](C(=O)OC)C(C)C)[C@@H](C)CC [Compound 1, Methyl (S)-2-((2S,3S)-2-{(3S,4S)-3-amino-4-[(S)-2-((S)-2-tert-butoxycarbonylamino-4-methylpentanoylamino)butyrylamino]-5-phenylpentanoylamino}-3-methylpentanoylamino)-3-methylbutyrate] (Boc-L[Abu][X1]IV-OMe) | – | 40 | 3.13
3 | CC[C@H](NC(=O)[C@H](CC(C)C)NC(=O)CC(C)C)C(=O)N[C@@H](Cc1ccccc1)[C@@H](N)CC(=O)NCCc1ccc2c(c1)OCO2 [Compound 5, N-(2-Benzo-1,3-dioxol-5-ylethyl)-(3S,4S)-3-amino-4-{(S)-2-[(S)-4-methyl-2-(3-methyl-butyrylamino)pentanoylamino]butyryl-amino}-5-phenylpentanamide] | > 30000 | 1800 | 7.73
4 | CC[C@H](C)[C@H](NC(=O)C[C@H](N)[C@H](Cc1ccccc1)NC(=O)[C@@H](NC(=O)Cc1cccc(OC(F)(F)F)c1)C(C)C)C(=O)NCCC(C)C [Compound 36, N-[(1S,2S)-2-Methyl-1-(3-methylbutyl-carbamoyl)butyl]-(S)-3-(S)-amino-4-{(S)-3-methyl-2-[2-(3-trifluoromethoxyphenyl)-acetylamino]butyrylamino}-5-phenyl-penlanamide] | > 30000 | 28 | 13.8
5 | CC[C@H](C)[C@H](NC(=O)C[C@H](N)[C@H](Cc1ccccc1)NC(=O)[C@@H](NC(=O)[C@H](CC(C)C)NC(=O)CC(C)C)C(C)C)C(=O)Nc1cccnc1 [Compound 25, N-[(1S,2S)-2-Methyl-1-(pyridin-3-yl-carbamoyl)butyl]-(S)-3-amino-4-{(S)-(S)-3-methyl-2-[(S)-4-methyl-2-(3-methylbutyryl-amino)pentanoylamino]butyrylamino}-5-phenylpentanamide] | > 30000 | 520 | 27.5
6 | CC[C@H](C)[C@H](NC(=O)C[C@H](N)[C@H](Cc1ccccc1)NC(=O)[C@@H](NC(=O)CCc1ccccc1)C(C)C)C(=O)N[C@H](C(=O)OC)C(C)C [Compound 17, Methyl (S)-2-((2S,3S)-2-{(3S,4S)-3-amino-4-[(S)-3-methyl-2-(3-phenylpropionylamino)butyrylamino]-5-phenylpentanoylamino}-3-methylpentanoylamino)-3-methyl-butyrate] | – | – | 55.2
7 | CC[C@H](C)[C@H](NC(=O)C[C@H](N)[C@H](Cc1ccccc1)NC(=O)[C@@H](NC(=O)[C@H](CC(C)C)NC(=O)CC(C)C)C(C)(C)C)C(=O)N[C@H](C(=O)OC)C(C)C [Compound 31, Methyl (S)-2-[(2S,3S)-2-((3S,4S)-3-amino-4-{(S)-3,3-dimethyl-2-[(S)-4-methyl-2-(3-methylbutyrylamino)pentanoylamino]-butyrylamino}-5-phenylpentanoylamino)-3-methylpentanoylamino]-3-methylbutyrate] (Isovaleryl-L[Tle][X1]IV-OMe) | > 30000 | 120 | –
